Test results from the supplement of paper PMC11208160.

Assay: recombinant barcode read abundance after kanamycin selection (control-corrected) (log10(CPM+1)); higher = more efficient recombination; sequences stand for … in AGTGCAGAGAAAATCGGCCAGTTTTCTCTGCCTGCAGTCCGCATGCCGT…AGATTTATGCAGCGGACTGCCTTTCTCCCAAAGTGATAAACCGGACAGTATCATGGACCGGTTTTCCCGGTAATCCGTATTTGCAAGGTTGGTTTCACT; site = the 11-nt target
Procedure: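 Pooled E. coli target-specificity screen for the IS621 bridge recombinase. Each library plasmid pairs an 11-nt target (CT core) with a bridge RNA whose target-binding loop (9-nt LTG + 4-nt RTG) is reprogrammed; the rest of the 177-nt WT IS621 bridge RNA scaffold is fixed. The plasmid is co-electroporated with a WT donor plasmid; recombinase is induced with 0.1 mM IPTG and recombinants are selected on kanamycin. Recombinant barcodes are sequenced, converted to CPM, averaged over two biological replicates and corrected by the unselected control CPM. Molecule = full bridge RNA written as DNA: LTG = specificity nt 1-9, RTG = reverse complement of specificity nt 8-11, in the WT scaffold.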
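Also: IS621 recombinase and bridge RNA in Escherichia coli cells.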

Sequence	recombinant barcode read abundance (log10)
ACGACTCCTTGGGTTCTAACCTGTTGCCT (site ACGACTGCTAG)	0.117
ACGACTCCTTGGGTTCTAACCTGTTGCCT (site ACGACTTCTAG)	0.0781
ACGAGTCCTTGGGTTCTAACCTGTTGCCT (site ACGAGTCCTAC)	0.112
ACGAGTCCTTGGGTTCTAACCTGTTGCCT (site ACGAGTCCTAG)	1.36
ACGCACTCTTGGGTTCTAACCTGTTGCCT (site ACGCAATCTAG)	0.02
ACGCACTCTTGGGTTCTAACCTGTTGCCT (site ACGCACTCTAG)	0.131
ACGCACTCTTGGGTTCTAACCTGTTGCCT (site ACGCAGTCTAG)	0.109
ACGCACTCTTGGGTTCTAACCTGTTGCCT (site ACGCATTCTAG)	0.394
ACGCATACTTGGGTTCTAACCTGTTGCCT (site ACACATACTAG)	0.196
ACGCATACTTGGGTTCTAACCTGTTGCCT (site ACGCATACTAG)	0.0647
ACGCATCCTTGGGTTCTAACCTGTTGCCT (site AAGCATCCTAG)	0.0107
ACGCATCCTTGGGTTCTAACCTGTTGCCT (site ACGCATCCTAG)	0.0284
ACGCATCCTTGGGTTCTAACCTGTTGCCT (site AGGCATCCTAG)	0.0797
ACGCATCCTTGGGTTCTAACCTGTTGCCT (site ATGCATCCTAG)	0.11
ACGCCCTCTTGGGTTCTAACCTGTTGCCT (site ACGCCCTCTAG)	0.0283
ACGCCCTCTTGGGTTCTAACCTGTTGCCT (site GCGCCCTCTAG)	0.302
ACGCCTCCTTGGGTTCTAACCTGTTGCCA (site ACCCCTCCTTG)	0.0961
ACGCCTCCTTGGGTTCTAACCTGTTGCCA (site ACGCCTCCTTG)	0.371
ACGCGAGCTTGGGTTCTAACCTGTTGCAG (site ACGCGAGCTCA)	0.188
ACGCGAGCTTGGGTTCTAACCTGTTGCAG (site ACGCGAGCTCC)	0.318
ACGCGAGCTTGGGTTCTAACCTGTTGCAG (site ACGCGAGCTCG)	0.192

Sequence	recombinant barcode read abundance (log10)
ACGCGAGCTTGGGTTCTAACCTGTTGCAG (site ACGCGAGCTCT)	0.142
ACGCGAGCTTGGGTTCTAACCTGTTGCGG (site ACGCGAGCTCA)	0.066
ACGCGAGCTTGGGTTCTAACCTGTTGCGG (site ACGCGAGCTCC)	0.954
ACGCGAGCTTGGGTTCTAACCTGTTGCGG (site ACGCGAGCTCG)	0.316
ACGCGAGCTTGGGTTCTAACCTGTTGCGG (site ACGCGAGCTCT)	0.423
ACGCGGACTTGGGTTCTAACCTGTTGCCT (site ACGCCGACTAG)	0
ACGCGGACTTGGGTTCTAACCTGTTGCCT (site ACGCGGACTAG)	1.21
ACGCGTTCTTGGGTTCTAACCTGTTGCAT (site ACGCGTTCTAT)	0.0272
ACGCGTTCTTGGGTTCTAACCTGTTGCAT (site CTAGACCCTCC)	0.271
ACGGATCCTTGGGTTCTAACCTGTTGCAT (site ACGGATCCTAT)	2.51
ACGGATCCTTGGGTTCTAACCTGTTGCAT (site GTCCTATCTTG)	0.0315
ACGGCCTCTTGGGTTCTAACCTGTTGCTT (site ACGGCATCTAG)	0.276
ACGGCCTCTTGGGTTCTAACCTGTTGCTT (site ACGGCCTCTAA)	2.63
ACGGCGCCTTGGGTTCTAACCTGTTGCCT (site AAGGCGCCTAG)	0.0538
ACGGCGCCTTGGGTTCTAACCTGTTGCCT (site ACGGCGCCTAG)	1.12
ACGGCGCCTTGGGTTCTAACCTGTTGCCT (site AGGGCGCCTAG)	0.101
ACGGCGCCTTGGGTTCTAACCTGTTGCCT (site ATGGCGCCTAG)	0.182
ACGGGCTCTTGGGTTCTAACCTGTTGCTC (site ACGGGCTCTGA)	1.53
ACGGGCTCTTGGGTTCTAACCTGTTGCTC (site CGACTTACTAT)	0.164
ACGGGGTCTTGGGTTCTAACCTGTTGCCT (site ACGGGGTCTAG)	2.64
ACGGGGTCTTGGGTTCTAACCTGTTGCCT (site CCGGGGTCTAG)	0.637

Sequence	recombinant barcode read abundance (log10)
ACGGGGTCTTGGGTTCTAACCTGTTGCCT (site GCGGGGTCTAG)	0.123
ACGGGGTCTTGGGTTCTAACCTGTTGCCT (site TCGGGGTCTAG)	0.416
ACGGGTACTTGGGTTCTAACCTGTTGCCT (site ACGGGTACTAG)	1.51
ACGGGTACTTGGGTTCTAACCTGTTGCCT (site ACTGGTACTAG)	0.165
ACGTAACCTTGGGTTCTAACCTGTTGCCT (site ACGTAACCTAG)	0.0547
ACGTAACCTTGGGTTCTAACCTGTTGCCT (site GTAACTACTGA)	0.083
ACGTATGCTTGGGTTCTAACCTGTTGCAT (site ACGTATGCTAT)	0.556
ACGTATGCTTGGGTTCTAACCTGTTGCAT (site TAAATCACTCG)	0.0674
ACGTCTCCTTGGGTTCTAACCTGTTGCTG (site ACGACTCCTCA)	0
ACGTCTCCTTGGGTTCTAACCTGTTGCTG (site ACGCCTCCTCA)	0.175
ACGTCTCCTTGGGTTCTAACCTGTTGCTG (site ACGGCTCCTCA)	0.0879
ACGTCTCCTTGGGTTCTAACCTGTTGCTG (site ACGTCTCCTCA)	0.162
ACGTGCTCTTGGGTTCTAACCTGTTGCCT (site AAGTGCTCTAG)	0.503
ACGTGCTCTTGGGTTCTAACCTGTTGCCT (site ACGTGCTCTAG)	1.32
ACGTGCTCTTGGGTTCTAACCTGTTGCCT (site AGGTGCTCTAG)	0.119
ACGTGCTCTTGGGTTCTAACCTGTTGCCT (site ATGTGCTCTAG)	0.246
ACGTGGCCTTGGGTTCTAACCTGTTGCCA (site ACGTGGCCTTG)	0.0442
ACGTGGCCTTGGGTTCTAACCTGTTGCCA (site ACGTGGTCTTA)	0.275
ACGTGGCCTTGGGTTCTAACCTGTTGCTG (site ACGTGGCCTCA)	1.05
ACGTGGCCTTGGGTTCTAACCTGTTGCTG (site ACTTGGCCTCA)	0.618
ACGTGGTCTTGGGTTCTAACCTGTTGCTA (site ACGTGGCCTTG)	0.534

Sequence	recombinant barcode read abundance (log10)
ACGTGGTCTTGGGTTCTAACCTGTTGCTA (site ACGTGGTCTTA)	0.582
ACTAACACTTGGGTTCTAACCTGTTGCCT (site ACTAACACTAG)	1.23
ACTAACACTTGGGTTCTAACCTGTTGCCT (site CCTAACACTAG)	0.0857
ACTAACACTTGGGTTCTAACCTGTTGCCT (site GCTAACACTAG)	0.0913
ACTAACACTTGGGTTCTAACCTGTTGCCT (site TCTAACACTAG)	0.546
ACTAACCCTTGGGTTCTAACCTGTTGCCT (site AATAACCCTAG)	0.0415
ACTAACCCTTGGGTTCTAACCTGTTGCCT (site ACTAACCCTAG)	1.47
ACTAACCCTTGGGTTCTAACCTGTTGCCT (site AGTAACCCTAG)	0.08
ACTAACCCTTGGGTTCTAACCTGTTGCCT (site ATTAACCCTAG)	0.074
ACTAAGCCTTGGGTTCTAACCTGTTGCGG (site ACTAAGCCTCC)	1.93
ACTAAGCCTTGGGTTCTAACCTGTTGCGG (site AGTAAGCCTCT)	0.151
ACTACCTCTTGGGTTCTAACCTGTTGCCT (site AATACCTCTAG)	0.0169
ACTACCTCTTGGGTTCTAACCTGTTGCCT (site ACTACCTCTAG)	1.35
ACTACCTCTTGGGTTCTAACCTGTTGCCT (site AGTACCTCTAG)	0.0737
ACTACCTCTTGGGTTCTAACCTGTTGCCT (site ATTACCTCTAG)	0.0805
ACTACTACTTGGGTTCTAACCTGTTGCCT (site AATACTACTAG)	0.227
ACTACTACTTGGGTTCTAACCTGTTGCCT (site ACTACTACTAG)	0.172
ACTACTACTTGGGTTCTAACCTGTTGCCT (site AGTACTACTAG)	0.492
ACTACTACTTGGGTTCTAACCTGTTGCCT (site ATTACTACTAG)	0.111
